According to ChEMBL document CHEMBL1201862, “PubChem BioAssay data set” (2004):
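Five concentrations, 48 hours, 96-well plates. Abbreviation: GI50, concentration required for 50% inhibition of growth.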 Activity calls are given as the source filed them. Rule as the data show it: active = GI50 up to about 1.1 µM and inactive = higher.

How the values were obtained:
Assay in all cases: NCI anticancer screen, dose series, 48 h
RXF 393 = test system: RXF 393
HOP-62 = test system: HOP-62
KM12 = test system: KM12
SNB-19 = test system: SNB-19
RPMI-8226 = test system: RPMI-8226
786-0 = test system: 786-0
LXFL 529 = test system: LXFL 529
KM-20L2 = test system: KM-20L2
SK-MEL-28 = test system: SK-MEL-28
DMS-114 = test system: DMS-114
OVCAR-3 = test system: OVCAR-3
SK-MEL-2 = test system: SK-MEL-2
NCI-H23 = test system: NCI-H23
HCC 2998 = test system: HCC 2998
SW-620 = test system: SW-620
SR = test system: SR
HCT-116 = test system: HCT-116
CAKI-1 = test system: CAKI-1
DMS-273 = test system: DMS-273
SK-OV-3 = test system: SK-OV-3
NCI-H226 = test system: NCI-H226
COLO 205 = test system: COLO 205
LOX IMVI = test system: LOX IMVI
CCRF-CEM = test system: CCRF-CEM
UACC-257 = test system: UACC-257
TK-10 = test system: TK-10
A498 = test system: A498
HL-60 = test system: HL-60
UACC-62 = test system: UACC-62
IGROV-1 = test system: IGROV-1
SN12C = test system: SN12C
RXF 631 = test system: RXF 631
DLD-1 = test system: DLD-1
A549 = test system: A549
SF-268 = test system: SF-268
Malme-3M = test system: Malme-3M
SF-539 = test system: SF-539
NCI-H522 = test system: NCI-H522
SF-295 = test system: SF-295
HCT-15 = test system: HCT-15
OVCAR-4 = test system: OVCAR-4
SNB-78 = test system: SNB-78
EKVX = test system: EKVX
HT-29 = test system: HT-29
U-251 = test system: U-251
UO-31 = test system: UO-31
SNB-75 = test system: SNB-75
M19-MEL = test system: M19-MEL
MOLT-4 = test system: MOLT-4
OVCAR-5 = test system: OVCAR-5
OVCAR-8 = test system: OVCAR-8
SK-MEL-5 = test system: SK-MEL-5
ACHN = test system: ACHN
M14 = test system: M14
NCI-H460 = test system: NCI-H460
HOP-92 = test system: HOP-92
HOP-18 = test system: HOP-18
K562 = test system: K562

Cc1cccc(C)c1NC(=O)C(=O)CC(=O)CO
GI50 (RXF 393): > 100 µM (inactive)
GI50 (HOP-62): > 100 µM (inactive)
GI50 (KM12): > 100 µM (inactive)
GI50 (SNB-19): > 100 µM (inactive)
GI50 (RPMI-8226): > 100 µM (inactive)
GI50 (786-0): > 100 µM (inactive)
GI50 (LXFL 529): > 100 µM (inactive)
GI50 (KM-20L2): > 100 µM (inactive)
GI50 (SK-MEL-28): > 100 µM (inactive)
GI50 (DMS-114): > 100 µM (inactive)
GI50 (OVCAR-3): > 100 µM (inactive)
GI50 (SK-MEL-2): > 100 µM (inactive)
GI50 (NCI-H23): > 100 µM (inactive)
GI50 (HCC 2998): > 100 µM (inactive)
GI50 (SW-620): > 100 µM (inactive)
GI50 (SR): > 100 µM (inactive)
GI50 (HCT-116): > 100 µM (inactive)
GI50 (CAKI-1): > 100 µM (inactive)
GI50 (DMS-273): > 100 µM (inactive)
GI50 (SK-OV-3): > 100 µM (inactive)
GI50 (NCI-H226): > 100 µM (inactive)
GI50 (COLO 205): > 100 µM (inactive)
GI50 (LOX IMVI): > 100 µM (inactive)
GI50 (CCRF-CEM): > 100 µM (inactive)
GI50 (UACC-257): > 100 µM (inactive)
GI50 (TK-10): > 100 µM (inactive)
GI50 (A498): > 100 µM (inactive)
GI50 (HL-60): > 100 µM (inactive)
GI50 (UACC-62): > 100 µM (inactive)
GI50 (IGROV-1): > 100 µM (inactive)
GI50 (SN12C): > 100 µM (inactive)
GI50 (RXF 631): > 100 µM (inactive)
GI50 (DLD-1): > 100 µM (inactive)
GI50 (A549): > 100 µM (inactive)
GI50 (SF-268): > 100 µM (inactive)
GI50 (Malme-3M): > 100 µM (inactive)
GI50 (SF-539): > 100 µM (inactive)
GI50 (NCI-H522): > 100 µM (inactive)
GI50 (SF-295): > 100 µM (inactive)
GI50 (HCT-15): > 100 µM
GI50 (OVCAR-4): > 100 µM (inactive)
GI50 (SNB-78): > 100 µM (inactive)
GI50 (EKVX): > 100 µM (inactive)
GI50 (HT-29): > 100 µM (inactive)
GI50 (U-251): > 100 µM (inactive)
GI50 (UO-31): > 100 µM (inactive)
GI50 (SNB-75): 73.5 µM (inactive)
GI50 (M19-MEL): > 100 µM (inactive)
GI50 (MOLT-4): > 100 µM (inactive)
GI50 (OVCAR-5): > 100 µM (inactive)
GI50 (OVCAR-8): > 100 µM (inactive)
GI50 (SK-MEL-5): > 100 µM (inactive)
GI50 (ACHN): > 100 µM (inactive)
GI50 (M14): > 100 µM (inactive)
GI50 (NCI-H460): > 100 µM (inactive)
GI50 (HOP-92): > 100 µM (inactive)
GI50 (HOP-18): > 100 µM (inactive)
GI50 (K562): > 100 µM (inactive)

CCOC(=O)C(=O)Nc1ccc(Cl)c(C(F)(F)F)c1
GI50 (RXF 393): > 100 µM (inactive)
GI50 (HOP-62): > 100 µM (inactive)
GI50 (SNB-19): > 100 µM (inactive)
GI50 (RPMI-8226): > 100 µM (inactive)
GI50 (786-0): > 100 µM (inactive)
GI50 (LXFL 529): > 100 µM (inactive)
GI50 (KM-20L2): > 100 µM (inactive)
GI50 (SK-MEL-28): > 100 µM (inactive)
GI50 (DMS-114): > 100 µM (inactive)
GI50 (OVCAR-3): > 100 µM (inactive)
GI50 (SK-MEL-2): > 100 µM (inactive)
GI50 (NCI-H23): > 100 µM (inactive)
GI50 (HCC 2998): > 100 µM (inactive)
GI50 (SW-620): > 100 µM (inactive)
GI50 (SR): > 100 µM (inactive)
GI50 (HCT-116): > 100 µM (inactive)
GI50 (CAKI-1): > 100 µM (inactive)
GI50 (DMS-273): > 100 µM (inactive)
GI50 (SK-OV-3): > 100 µM (inactive)
GI50 (NCI-H226): > 100 µM (inactive)
GI50 (COLO 205): > 100 µM (inactive)
GI50 (LOX IMVI): > 100 µM (inactive)
GI50 (CCRF-CEM): > 100 µM (inactive)
GI50 (UACC-257): > 100 µM (inactive)
GI50 (TK-10): > 100 µM (inactive)
GI50 (HL-60): > 100 µM (inactive)
GI50 (UACC-62): > 100 µM (inactive)
GI50 (IGROV-1): > 100 µM (inactive)
GI50 (SN12C): > 100 µM (inactive)
GI50 (RXF 631): > 100 µM (inactive)
GI50 (DLD-1): > 100 µM (inactive)
GI50 (A549): > 100 µM (inactive)
GI50 (SF-268): > 100 µM (inactive)
GI50 (Malme-3M): > 100 µM (inactive)
GI50 (SF-539): > 100 µM (inactive)
GI50 (NCI-H522): > 100 µM (inactive)
GI50 (SF-295): > 100 µM (inactive)
GI50 (HCT-15): > 100 µM
GI50 (OVCAR-4): > 100 µM (inactive)
GI50 (SNB-78): > 100 µM (inactive)
GI50 (EKVX): > 100 µM (inactive)
GI50 (HT-29): > 100 µM (inactive)
GI50 (U-251): > 100 µM (inactive)
GI50 (UO-31): > 100 µM (inactive)
GI50 (SNB-75): > 100 µM (inactive)
GI50 (M19-MEL): > 100 µM (inactive)
GI50 (MOLT-4): > 100 µM (inactive)
GI50 (OVCAR-5): > 100 µM (inactive)
GI50 (OVCAR-8): > 100 µM (inactive)
GI50 (SK-MEL-5): > 100 µM (inactive)
GI50 (ACHN): > 100 µM (inactive)
GI50 (M14): > 100 µM (inactive)
GI50 (HOP-92): < 0.01 µM (active)
GI50 (HOP-18): > 100 µM (inactive)
GI50 (K562): > 100 µM (inactive)

CCOC(=O)C1(Br)C(c2ccccc2)NC(=O)N(C2OC(COC(=O)c3ccccc3)C(OC(=O)c3ccccc3)C2OC(=O)c2ccccc2)C1(C)Br (configuration not stated)
GI50 (RXF 393): 14.5 µM (inactive)
GI50 (HOP-62): 38.9 µM (inactive)
GI50 (KM12): 21.6 µM (inactive)
GI50 (SNB-19): 39.9 µM (inactive)
GI50 (RPMI-8226): 9.31 µM (inactive)
GI50 (786-0): 12.9 µM (inactive)
GI50 (LXFL 529): 21.6 µM (inactive)
GI50 (KM-20L2): 37.9 µM (inactive)
GI50 (SK-MEL-28): > 47 µM (inactive)
GI50 (DMS-114): 18.3 µM (inactive)
GI50 (OVCAR-3): 29.6 µM (inactive)
GI50 (SK-MEL-2): 31.5 µM (inactive)
GI50 (NCI-H23): 29.4 µM (inactive)
GI50 (HCC 2998): 91 µM (inactive)
GI50 (SW-620): 14.4 µM (inactive)
GI50 (HCT-116): 18.2 µM (inactive)
GI50 (CAKI-1): 35.6 µM (inactive)
GI50 (DMS-273): 33.5 µM (inactive)
GI50 (SK-OV-3): 42.9 µM (inactive)
GI50 (COLO 205): 24.4 µM (inactive)
GI50 (LOX IMVI): 21.8 µM (inactive)
GI50 (CCRF-CEM): 3.15 µM (inactive)
GI50 (UACC-257): 18.6 µM (inactive)
GI50 (TK-10): 39.4 µM (inactive)
GI50 (A498): 38.9 µM (inactive)
GI50 (HL-60): 0.0565 µM (active)
GI50 (UACC-62): 10.6 µM (inactive)
GI50 (IGROV-1): 34.9 µM (inactive)
GI50 (SN12C): 34 µM (inactive)
GI50 (RXF 631): 15.3 µM (inactive)
GI50 (DLD-1): 36.4 µM (inactive)
GI50 (A549): 12.9 µM (inactive)
GI50 (SF-268): > 55.5 µM (inactive)
GI50 (Malme-3M): 23.8 µM (inactive)
GI50 (SF-539): 38.7 µM (inactive)
GI50 (NCI-H522): 10.2 µM (inactive)
GI50 (SF-295): 33.3 µM (inactive)
GI50 (HCT-15): 15.8 µM
GI50 (OVCAR-4): 13.9 µM (inactive)
GI50 (EKVX): 36.7 µM (inactive)
GI50 (HT-29): 18.2 µM (inactive)
GI50 (U-251): 27.8 µM (inactive)
GI50 (UO-31): 25.9 µM (inactive)
GI50 (SNB-75): 13.3 µM (inactive)
GI50 (M19-MEL): 28.4 µM (inactive)
GI50 (MOLT-4): 18.2 µM (inactive)
GI50 (OVCAR-8): 17.3 µM (inactive)
GI50 (SK-MEL-5): 15.2 µM (inactive)
GI50 (ACHN): 30.8 µM (inactive)
GI50 (M14): 21 µM (inactive)
GI50 (NCI-H460): 31 µM (inactive)
GI50 (HOP-92): 18.1 µM (inactive)
GI50 (HOP-18): > 100 µM (inactive)
GI50 (K562): 8.91 µM (inactive)
